PMC11269945, “HTRF-based assay for detection of mono-ADP-ribosyl hydrolyzing macrodomains and inhibitor screening” (iScience, 2024)
Counter-ions that a name gives are not always drawn. Like-named read-outs stand apart in the source and are kept apart here.

B1: HCoV-229e: recombinant HCoV-229E macrodomain, Uniprot P0C6X1 res. E1270-1437 (protein, UniProt P0C6X1 1270-1437, looked up, fragment)
chain: EKLNAFLVHDNVAFYQGDVDTVVNGVDFDFIVNAANENLAHGGGLAKALDVYTKGKLQRLSKEHIGLAGKVKVGTGVMVECDSLRIFNVVGPRKGKHERDLLIKAYNTINNEQGTPLTPILSCGIFGIKLETSLEVLLDVCNTKEVKVFVYTDTEVCKVKDFVSGLVN
modifications: Non-structural protein 3 macrodomain
B2: TARG1: recombinant human TARG1, Uniprot Q9Y530 res. S3-152 (protein, UniProt Q9Y530 3-152, looked up, fragment)
chain: SSLNEDPEGSRITYVKGDLFACPKTDSLAHCISEDCRMGAGIAVLFKKKFGGVQELLNQQKKSGEVAVLKRDGRYIYYLITKKRASHKPTYENLQKSLEAMKSHCLKNGVTDLSMPRIGCGLDRLQWENVSAMIEEVFEATDIKITVYTL
B3: MacroD1: recombinant human MacroD1, Uniprot Q9BQ69 res. 90-325 (protein, UniProt Q9BQ69 90-325, looked up, fragment)
chain: STSTDWKEAKSFLKGLSDKQREEHYFCKDFVRLKKIPTWKEMAKGVAVKVEEPRYKKDKQLNEKISLLRSDITKLEVDAIVNAANSSLLGGGGVDGCIHRAAGPLLTDECRTLQSCKTGKAKITGGYRLPAKYVIHTVGPIAYGEPSASQAAELRSCYLSSLDLLLEHRLRSVAFPCISTGVFGYPCEAAAEIVLATLREWLEQHKDKVDRLIICVFLEKDEDIYRSRLPHYFPVA
B4: MacroD2: recombinant human MacroD2, Uniprot A1Z1Q3 res. 4-243 (protein, UniProt A1Z1Q3 4-243, looked up, fragment)
chain: SNKKKKVWREEKERLLKMTLEERRKEYLRDYIPLNSILSWKEEMKGKGQNDEENTQETSQVKKSLTEKVSLYRGDITLLEVDAIVNAANASLLGGGGVDGCIHRAAGPCLLAECRNLNGCDTGHAKITCGYDLPAKYVIHTVGPIARGHINGSHKEDLANCYKSSLKLVKENNIRSVAFPCISTGIYGFPNEPAAVIALNTIKEWLAKNHHEVDRIIFCVFLEVDFKIYKKKMNEFFSVD

How the values were obtained:
MacroD1 [1] = target: T1, MacroD1 (Homo sapiens, UniProt Q9BQ69); design: method as in PMID 18983849; conditions: read-out: Kd for free ADPr, MacroD1; cited from earlier work
T1 sequence (Q9BQ69 90-325): B3 chain

PARP14 Mac2/3 = target: T2, PARP14 Mac2/3 (Homo sapiens, UniProt Q460N5); experiment: biochemical; format: binding
T2 sequence (Q460N5 994-1393): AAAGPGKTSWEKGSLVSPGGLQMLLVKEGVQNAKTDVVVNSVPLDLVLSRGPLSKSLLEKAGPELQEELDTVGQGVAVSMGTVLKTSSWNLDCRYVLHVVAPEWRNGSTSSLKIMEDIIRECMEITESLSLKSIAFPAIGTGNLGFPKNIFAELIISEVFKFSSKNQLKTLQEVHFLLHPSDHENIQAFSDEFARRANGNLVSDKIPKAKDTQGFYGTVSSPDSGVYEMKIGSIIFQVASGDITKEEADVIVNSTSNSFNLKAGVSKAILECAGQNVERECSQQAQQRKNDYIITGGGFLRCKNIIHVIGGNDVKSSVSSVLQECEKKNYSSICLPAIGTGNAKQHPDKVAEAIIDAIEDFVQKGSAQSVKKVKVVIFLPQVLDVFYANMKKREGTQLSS

MacroD1 [2] = target: T1, MacroD1; experiment: biochemical
HCoV-229e macrodomain = HCoV-229e macrodomain (Human coronavirus 229E, UniProt P0C6X1); experiment: DeMAR HTRF deMARylation assay, wash protocol; format: biochemical
SARS-CoV-2 Mac1 [3] = target: T3, SARS-CoV-2 Mac1 (Severe acute respiratory syndrome coronavirus 2, UniProt P0DTD1); format: biochemical
CHIKV macrodomain = CHIKV macrodomain (Chikungunya virus, UniProt Q8JUX6, C1333S); format: biochemical, Chikungunya (CHIKV) alphavirus
SARS-CoV-2 Mac1 [4] = target: T3, SARS-CoV-2 Mac1; experiment: biochemical
MacroD2 = target: T4, MacroD2 (Homo sapiens, UniProt A1Z1Q3); format: biochemical; conditions: read-out: IC50 MacroD2
T4 sequence (A1Z1Q3 4-243): B4 chain

TARG1 = target: T5, TARG1 (Homo sapiens, UniProt Q9Y530); format: biochemical; conditions: read-out: IC50 TARG1
T5 construct: "Uniprot: Q9Y530" res; His10 with TEV site (N, cleaved yes); made in house; host or cells: E. coli T7-express
T5 sequence (Q9Y530 3-152): B2 chain

MARylated Tb-PARP10cat [5] = format: biochemical, human
MARylated Tb-PARP10cat [6] = format: biochemical, human; remark: listed apart in the source
[7] = read-out: IC50 HCoV-229e, wash setup, 2 h, 80 nM macrodomain, 6 nM immobilized Tb-PARP10cat

Row | Molecule | readout quenching in one-pot setup (PARP14 Mac2/3 off-target), in words (PARP14 Mac2/3) | IC50 (HCoV-229e macrodomain; [7]) | EC80 One-pot (1 h) (MARylated Tb-PARP10cat [5]) | EC80 Wash (2 h) (MARylated Tb-PARP10cat [6]) | also measured
1 | Nc1ncnc2c1ncn2C1OC(COP(=O)(O)OP(=O)(O)OCC2OC(O)C(O)C2O)C(O)C1O (centres unmarked) [ADPr, Adenosine 5′-diphosphoribose sodium salt] | – | – | – | – | Kd (MacroD1 [1]): 0.9 µM; IC50 (PARP14 Mac2/3): 67 µM; IC50 (MacroD1 [2]): 2 µM; IC50 (HCoV-229e macrodomain): ~460 µM
2 | N#C[C@@]1(c2ccc3c(N)ncnn23)O[C@H](CO)[C@@H](O)[C@H]1O [GS-441524] | clear and concentration-dependent loss of signal | > 667 µM | – | – | inhibition of SARS-CoV-2 Mac1 in words (SARS-CoV-2 Mac1 [3]): slightly inhibits; IC50 CHIKV (CHIKV macrodomain): slight activity
3 | O=C(Nc1ccc(C(=O)NC2c3cccc(O)c3CC2C(=O)O)cc1)NC1CC1 (centres unmarked) [Z8539] | does not show a strong quenching effect | > 667 µM | – | – | –
4 | O=C(Nc1ccccc1)Nc1ccc(C(=O)NC2c3cccc(O)c3CC2C(=O)O)cc1 (centres unmarked) [Z8539_0023] | pronounced readout quenching | – | – | – | IC50 (SARS-CoV-2 Mac1 [4]): 6 µM; IC50 (MacroD2): > 667 µM; IC50 (TARG1): > 667 µM; IC50 (MacroD1 [2]; read-out: IC50 MacroD1): > 667 µM
5 | O=C(Nc1ccc(C(=O)NC2c3cccc(O)c3CC2C(=O)O)c(O)c1)NC1CC1 (centres unmarked) [Z8539_0072] | – | > 667 µM | – | – | IC50 (SARS-CoV-2 Mac1 [4]): 14 µM
6 | Oc1c(Cl)cc(Cl)c(Cl)c1Cc1c(O)c(Cl)cc(Cl)c1Cl [hexachlorophene] | – | – | – | – | inhibition of SARS-CoV-2 Mac1 in words (SARS-CoV-2 Mac1 [3]): limited efficacy
7 | B1 | – | – | 0.036 µM | 0.015 µM | –
8 | B2 | – | – | ∼2256 nM | ∼ 830 nM | –
9 | B3 | – | – | 0.004 µM | 0.003 µM | –
10 | B4 | – | – | 0.003 µM | 0.002 µM | –
